Measurements: US20130096166A1 (Clark Atlanta University, priority 2011, published 2013)

Key:
C4-2 cells [1] = test: Detection of reactive oxygen species (H2DCFDA oxidation); assay type: cell-based, human
Procedure: (§1) Cells were plated at a density of 1×10^4 cells well in 96-well black clear bottom plates and left to attach overnight. Baseline ROS levels were assessed in untreated ARCaP Neo, […], and C4-2 cells. Prior to treatment, […] C4-2 cells were starved in serum-free and phenol red free RPMI. […] Procedures were performed following manufacturer's protocol (Molecular Probes®, Invitrogen) with slight modifications. Briefly, cells were loaded with 10 μM (final working concentration) of H2DCFDA in pre-warmed Hanks Balance Salt solution (HBSS) for 45 minutes. This was replaced with experimental media with various treatments as well as untreated controls, for 3 days. H2DCFDA oxidation was measured on a spectrofluorometer (BIOTek Synergy HT, BIOTeK Instruments Inc., Vt.) with excitation […] and emission 528 nm at desired increments.

[2] = Cell viability assay (CellTiter 96 AQueous One, MTS); assay type: cell-based, human; conditions: human, ARCaP Neo cells, 3 days, 50 μM H2O2, read-out: decrease in cell viability
Procedure: (§2) PrEC, ARCaP Neo, ARCaP Snail, LNCaP, and C4-2 cells were plated at a density of 2,000 cells per well in 96-well plates and allowed to attach overnight.

cleaved PARP = test: Western blot analysis of cleaved PARP protein expression; assay type: cell-based, human; conditions: for effect on camalexin-mediated PARP cleavage: H2O2 with camalexin
ARCaP Snail cells [3] = test: Detection of reactive oxygen species (H2DCFDA oxidation); assay type: cell-based, human
Procedure: as §1

ARCaP Snail cells [4] = test: Cell viability assay (CellTiter 96 AQueous One, MTS); assay type: cell-based, human
Procedure: as §2

[5] = tested on: caspase-3/7 activity in ARCaP Snail cells; test: FACS analysis of caspase-3/7 activity (Dual Sensor Mitocasp assay); assay type: cell-based, human; conditions: 3 days
Procedure: Caspases are generally accepted as the executioners of apoptosis. […] Stained cells were evaluated in an Accuri® C6 Flow Cytometer (Accuri Cytometers Inc., Ann Arbor, Mich.) and analyzed using FlowJo software.

ARCaP Neo cells = test: Cell viability assay (CellTiter 96 AQueous One, MTS); assay type: cell-based, human
Procedure: as §2

C4-2 cells [6] = test: as above; assay type: cell-based, human
Procedure: as §2

LNCaP cells = test: as above; assay type: cell-based, human
Procedure: as §2

Snail = test: Western blot analysis of Snail protein expression; assay type: cell-based, human; conditions: 3 days
caspase-3 = test: Western blot analysis of total caspase-3 protein expression; assay type: cell-based, human
Jurkat T-leukemia cells = conditions: by increasing ROS and activation of caspases; cited from earlier work
Trypanosoma cruzi = conditions: cited from earlier work
[7] = 10 mM NAC added to 25 or 50 μM camalexin
[8] = ARCaP Neo cells, 10, 25 and 50 μM

SMILES: OO [H2O2, Hydrogen peroxide, reference compound]
- ROS in cells (C4-2 cells [1]; 100 μM H2O2 positive control): significantly increased ROS
- cytotoxicity at 3 days, 50 μM [2]: ~50%
- effect on camalexin-mediated PARP cleavage (cleaved PARP; ARCaP Neo cells): potentiated camalexin-mediated PARP cleavage
- effect on camalexin-mediated PARP cleavage (cleaved PARP; LNCaP cells): potentiated camalexin-mediated PARP cleavage

SMILES: CC(=O)N[C@@H](CS)C(=O)O [NAC, N-acetyl cysteine, reference compound]
- effect on camalexin-mediated ROS (ARCaP Snail cells [3]; [7]): abrogated by NAC
- effect on camalexin-mediated ROS (C4-2 cells [1]; [7]): significantly decreased camalexin-mediated ROS
- increased viability vs. 25 μM camalexin-only treatment (ARCaP Snail cells [4]; 3 days, 25 μM camalexin with 10 mM NAC, not statistically significant): approximately 15%
- effect on camalexin-induced increase in caspase-3/7 activity ([5]; 25 μM camalexin plus 10 mM NAC): abrogated the percent increase in caspase-3/7 activity
- effect on camalexin-increased cleaved PARP protein expression (cleaved PARP; ARCaP Snail cells, co-treatment with NAC): could be inhibited by co-treatment with NAC

SMILES: c1ccc2c(-c3nccs3)c[nH]c2c1 [camalexin, 3-thiazol-2′yl-indole]
- ROS, as compared to untreated controls (ARCaP Snail cells [3]; 25 μM camalexin): approximately 210%
- ROS, as compared to untreated controls (ARCaP Snail cells [3]; 50 μM camalexin): ~350±25%
- ROS, of untreated controls (C4-2 cells [1]; 25 μM camalexin): approximately 130±5%
- ROS, of untreated controls (C4-2 cells [1]; 50 μM camalexin): ~150±5%
- cell viability (ARCaP Neo cells; day 0): no change in viability
- cell viability (ARCaP Neo cells; day 3, 10, 25 and 50 μM): remained unaffected
- cell viability (ARCaP Snail cells [4]; day 0): no change in viability
- decrease in cell viability (ARCaP Snail cells [4]; day 3, 10 μM): approximately 25%
- decrease in cell viability (ARCaP Snail cells [4]; day 3, 25 μM): ~35%
- decrease in cell viability (ARCaP Snail cells [4]; day 3, 50 μM): ~35%
- cell viability (C4-2 cells [6]; C4-2, day 0): viability was unaffected
- decrease in cell viability (C4-2 cells [6]; C4-2, day 3, 10 μM): approximately 40±5%
- decrease in cell viability (C4-2 cells [6]; C4-2, day 3, 25 μM): approximately 40±5%
- decrease in cell viability (C4-2 cells [6]; C4-2, day 3, 50 μM): approximately 40±5%
- cell viability (LNCaP cells; day 0): viability was unaffected
- decrease in cell viability (LNCaP cells; day 3, 50 μM): approximately 40±2%
- fraction of cells with increased caspase-3/7 activity ([5]; 25 μM camalexin, untreated control 21.7%): 34.2%
- Snail protein expression (Snail; [8]): no detectable levels of Snail protein expression
- Snail protein expression (Snail; ARCaP Snail cells, 10, 25 and 50 μM): not affected by camalexin treatments
- Snail protein expression (Snail; C4-2 cells, 10, 25 and 50 μM): did not affect Snail expression
- Snail protein expression (Snail; LNCaP cells, 10 μM): moderate expressing band for Snail protein
- total caspase-3 protein levels (caspase-3; ARCaP Neo cells, 3 days): not in the less aggressive ARCaP Neo or LNCaP cells
- total caspase-3 protein levels (caspase-3; ARCaP Snail cells, 3 days (p<0.01 at 50 μM)): induced an increase in total caspase-3 protein levels
- total caspase-3 protein levels (caspase-3; C4-2 cells, 3 days): induced an increase in total caspase-3 protein levels
- total caspase-3 protein levels (caspase-3; LNCaP cells, 10 μM, 3 days): significant decrease in protein expression
- total caspase-3 protein levels (caspase-3; LNCaP cells, 3 days): not in the less aggressive ARCaP Neo or LNCaP cells
- cleaved PARP protein expression (cleaved PARP; [8]): very low levels of cleaved PARP protein expression
- cleaved PARP protein expression (cleaved PARP; ARCaP Snail cells, 10, 25 and 50 μM vs untreated control): marked increase in levels of cleaved PARP protein expression
- PARP protein cleavage (cleaved PARP; C4-2 cells, all 3 camalexin treatments, vs LNCaP cells): marked increase in PARP protein cleavage
- apoptosis (Jurkat T-leukemia cells): induced apoptosis
- cytostatic/cytotoxic effects (Trypanosoma cruzi): cytostatic/cytotoxic effects
